What all share (format): functional
The subject of test [1] is Acinetobacter baumannii. The test is described as follows: Potentiation of clarithromycin-induced antibacterial activity against Acinetobacter baumannii AB5075 assessed as assessed as fold reduction in clarithromycin MIC at 30 uM by CLSI based microdilution method. Background: Broth dilution looks for growth in wells or tubes with falling amounts of substance.
Test [2] relates to Acinetobacter baumannii. The test is described as follows: Antibacterial activity against Acinetobacter baumannii AB5075 assessed as reduction in microbial growth by CLSI based microdilution method.
The subject of test [3] is Acinetobacter baumannii. Nature of the test: Potentiation of clarithromycin-induced antibacterial activity against Acinetobacter baumannii AB5075 assessed as assessed as fold reduction in clarithromycin MIC at 10 uM by CLSI based microdilution method.
Test [4] has as its system Acinetobacter baumannii. The test is described as follows: Potentiation of clarithromycin-induced antibacterial activity against Acinetobacter baumannii AB5075 assessed as clarithromycin MIC at 30 uM by CLSI based microdilution method (reference value: […] ug/ml).
In test [5] the test system is Acinetobacter baumannii. The test is described as follows: Potentiation of clarithromycin-induced antibacterial activity against Acinetobacter baumannii AB5075 assessed as clarithromycin MIC at 10 uM by CLSI based microdilution method (reference value: […] ug/ml).
Test [6] deals with Acinetobacter baumannii. The test is described as follows: Antibacterial activity against Acinetobacter baumannii AB5075 assessed as reduction in microbial growth after 9 days by broth microdilution method. To be noted: AB5075, 216 h, time 9 day.
For test [7], the system named is Acinetobacter baumannii. Nature of the test: Antibacterial activity against Acinetobacter baumannii AB5075 assessed as reduction in microbial growth after 6 days by broth microdilution method. The note with it: AB5075, 144 h, time 6 day.
Test [8] concerns Acinetobacter baumannii. The test is described as follows: Antibacterial activity against Acinetobacter baumannii AB5075 assessed as reduction in microbial growth after 2 days by broth microdilution method. The note with it: AB5075, 48 h, time 2 day.

Usually MIC stands for the smallest concentration in the dilution series that meets the test's criterion for growth inhibition. With `Nc1ncc(-c2ccc(NC(=O)c3cc(Br)cc(Br)c3)cc2)[nH]1`, the “fold change (FC)” value in the test with Acinetobacter baumannii [1] amounted to 128; with Acinetobacter baumannii [3] it was 16. The MIC in the test with Acinetobacter baumannii [2] is 100 µM; with Acinetobacter baumannii [4], 0.25 µg/mL; in the test with Acinetobacter baumannii [5], 2 µg/mL.
Regarding `CC[C@H]1OC(=O)[C@H](C)[C@@H](O[C@H]2C[C@@](C)(OC)[C@@H](O)[C@H](C)O2)[C@H](C)[C@@H](O[C@@H]2O[C@H](C)C[C@H](N(C)C)[C@H]2O)[C@](C)(OC)C[C@@H](C)C(=O)[C@H](C)[C@@H](O)[C@]1(C)O` [CLARITHROMYCIN], the MIC was 512 µg/mL in the test with Acinetobacter baumannii [6], 512 µg/mL with Acinetobacter baumannii [7] and not below 128 µg/mL with Acinetobacter baumannii [8].

The record behind these values is ChEMBL document CHEMBL4725412, “Augmenting the Activity of Macrolide Adjuvants against Acinetobacter baumannii” (2020).
